Activity calls are given as the source filed them. The rule behind the calls is not given here. Where a SMILES comes first, the peptide text is derived from it.

76 molecules from PubChem BioAssay AID608 (Sanford-Burnham Center for Chemical Genomics, 2007) can be followed below.

Peptidyl-prolyl cis-trans isomerase FKBP1A (Homo sapiens), sequence (P62942 whole entry, looked up): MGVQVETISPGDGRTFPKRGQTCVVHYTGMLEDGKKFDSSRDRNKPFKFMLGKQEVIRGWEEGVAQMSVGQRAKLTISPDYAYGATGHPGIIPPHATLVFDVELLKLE

The assay concerns the target Peptidyl-prolyl cis-trans isomerase FKBP1A (Homo sapiens) (UniProt P62942). The experiment in a line: small-molecule binding to FKBP12 – biophysical, NMR detection (AID 608). As to conditions: purified FKBP12.
As for `CC(=O)N[C@@H](CC(=O)O)C(=O)N[C@@H](CCC(=O)O)C(=O)O` (Ac-Asp-Glu-OH), the Kd – broadly, the free concentration of one partner at which half of the binding sites on the other are occupied at equilibrium, for simple one-to-one binding – was > 4 mM (inactive). Turning to `CN1CN(Cc2ccccc2)CN/C1=N/[N+](=O)[O-]`, the Kd was > 4 mM (inactive). `C[n+]1cc2c3c(ccc2c2ccc4cc5c(cc4c21)OCO5)OCO3`: the Kd was > 4 mM (inactive).

On to `COc1cc2c(cc1OC)-c1cc3ccc(OC)c(OC)c3c[n+]1CC2`, for which the Kd was > 4 mM (inactive).

In the case of `Cc1ccc(/C=C2/NC(=S)NC2=O)s1`, the Kd is > 4 mM (inactive). Turning to `Cn1c(SCC(N)=O)nc2c1c(=O)[nH]c(=O)n2C`, the Kd was > 4 mM (inactive). In the case of `CC(=O)c1c(C)nc(-c2ccc(Cl)cc2Cl)n1O` it was > 4 mM (inactive); in that of `O=C(O)c1cccc(CSc2ncccn2)c1`, > 4 mM (inactive); in that of `S=C(c1ccc2c(c1)OCO2)N1CCCC1`, > 4 mM (inactive).

Regarding `Cc1nc(-c2cccc(-c3noc(C)n3)c2)no1`, the Kd is > 4 mM (inactive). In the case of `O=C1CC(=O)N(Cc2ccco2)C(=S)N1` it was > 4 mM (inactive); in that of `O=C(Nc1ccccc1)Nc1ccccn1`, > 4 mM (inactive); in that of `COc1ccc(-c2c(O)c3c(OC)c4c(cc3oc2=O)OC(C)(C)CC4)cc1`, > 4 mM (inactive).

In the case of `CN(C)C(=O)C12CCC(C)(C(=O)O1)C2(C)C` (stereo unspecified), the Kd is > 4 mM (inactive). In the case of `O=c1[nH]cc(Nc2ccccc2)c(=O)[nH]1`, the Kd is > 4 mM (inactive). For `O=C(NCc1ccco1)c1nc2ncccn2n1` the value was > 4 mM (inactive). For `CCOC(=O)c1cc(C)n(C)n1` the value was > 4 mM (inactive); for `COC(=O)c1ccccc1C`, > 4 mM (inactive); for `Clc1cccc(Cl)c1Cn1c(-c2cscn2)nc2ccccc21`, “inactive”. In the case of `Cn1c(O)c(/C=C2\C=CC=N2)c(=O)[nH]c1=S` it was > 4 mM (inactive); in that of `O=C(O)CCC(=O)NCc1cccnc1`, > 4 mM (inactive); in that of `Cc1cc(C)n(CC(=O)O)n1`, > 4 mM (inactive).

For `COc1c(CC=C(C)C)c2c(c3oc(=O)c(-c4ccc(O)cc4)c(O)c13)C=CC(C)(C)O2`, the Kd is > 4 mM (inactive). For the molecule `Cn1ncc(C(=O)NC2CCCCC2)c1Cl`, the Kd is > 4 mM (inactive). For `O=c1[nH]cnc2nn(-c3ccccc3)nc12` the value was > 4 mM (inactive); for `Cc1ccccc1NC(=S)NCCO`, > 4 mM (inactive). For `CCn1c(C)c(C(C)=O)c(N2CCOCC2)nc1=S` the value was > 4 mM (inactive); for `Cc1ccc(NS(=O)(=O)N2CCOCC2)cc1`, “inactive”; for `CC(=O)Nc1nc(-c2cccs2)cs1`, > 4 mM (inactive). In the case of `Cn1nccc1N` it was > 4 mM (inactive); in that of `CC(C)(C)CC(=O)NC1=NCCS1`, > 4 mM (inactive). On to `Cc1ccc2nc(SCC(=O)O)nc(C)c2c1`, for which the Kd was > 4 mM (inactive).

Consider `O=S(=O)(Nc1cc(Cl)cc(Cl)c1)N1CCOCC1`, for which the Kd entry was “inactive”. Regarding `C=C1C(N)CC2CC1C2(C)C` (stereo unspecified), the Kd is > 4 mM (inactive). For `O=S1(=O)C=CC(N2CCCCC2)C1` (stereo unspecified) the value was > 4 mM (inactive). For `Cc1ccccc1CSc1nnc(C)n1N` the value was > 4 mM (inactive). For `CC(=O)OC1CCC2(O)CC1(C)CCC1C2CC1(C)C` (stereo unspecified) the value was > 4 mM (inactive); for `CC(CC(O)C1OC1(C)C)[C@@H]1CCC2(C)C3=CCC4C(C)(C)C(=O)CCC4(C)C3CC[C@@]12C` (stereo partly specified), > 4 mM (inactive); for `Nc1ccc(-c2cnco2)cc1`, > 4 mM (inactive).

As to `O=C1CSC2=NCCCN12`, the Kd was > 4 mM (inactive). As to `OC1(c2ccc(Cl)cc2)CCNCC1`, the Kd is > 4 mM (inactive).

For `COCc1nc(-c2cc(Br)ccc2OC)no1`, the Kd is > 4 mM (inactive). `COc1cc(-c2csc(C)n2)ccc1O`: the Kd was > 4 mM (inactive). In the case of `O=C(Nc1nnc(-c2ccco2)o1)c1ccc([N+](=O)[O-])o1`, the Kd was > 4 mM (inactive). Take `Cc1sc(CCc2nc(-c3ccccc3)c(C)s2)nc1-c1ccccc1`: the Kd result was “inactive”. As for `Cc1nn(-c2ccccc2)nc1C(N)=O`, the Kd is > 4 mM (inactive).

In the case of `Cc1occc1C(=O)NCc1ccccc1F`, the Kd was > 4 mM (inactive). `O=C(O)c1ccc2c(c1)OCCO2`: the Kd is > 4 mM (inactive). In the case of `NC(=O)c1ccc(NC(=O)C2CC2)cc1` it was > 4 mM (inactive); in that of `OCC1CCN(Cc2ccccc2)CC1`, > 4 mM (inactive); in that of `O=S(=O)(NCc1ccco1)c1cccc2cccnc12`, > 4 mM (inactive). Regarding `Clc1ccc(-c2noc(CN3CCCC3)n2)cc1`, the Kd is > 4 mM (inactive).

As for `CC(=O)NC1=NN(c2ccccc2)C(=O)C1`, the Kd is > 4 mM (inactive). For `Cn1[nH]c2nc3[nH]n(C)c(=O)c3c(-c3ccccc3)c2c1=O` the value was > 4 mM (inactive).

Turning to `COc1cc([C@@H]2c3cc4c(cc3[C@H](O)[C@H]3COC(=O)[C@@H]23)OCO4)cc(OC)c1OC`, the Kd was > 4 mM (inactive). For `O=C(Nn1cnnc1)c1csc2c1CCCC2` the value was > 4 mM (inactive). In the case of `CC12CN(CC#N)CC(C)(CN(CC#N)C1)C2=O`, the Kd was > 4 mM (inactive).

For the molecule `COc1ccccc1NC(C)=O`, the Kd is > 4 mM (inactive). On to `O=C1CNC(=O)N1Cc1ccc(F)cc1`, for which the Kd is > 4 mM (inactive). In the case of `O=C(NCN1CCOCC1)c1cccnc1` it was > 4 mM (inactive); in that of `Cc1cc(C(=O)NC(C)c2ccncc2)no1` (stereo unspecified), > 4 mM (inactive).

With `O=C(c1nc2ccccc2s1)N1CCSCC1`, the Kd was > 4 mM (inactive).

For `CC(=O)NC(=S)Nc1ccccc1C(N)=O`, the Kd was > 4 mM (inactive). Consider `CNC[C@@H](O)c1ccc(O)c(O)c1`, for which the Kd was > 4 mM (inactive). As for `Cc1nccc(-c2cccc(N)c2)n1`, the Kd was > 4 mM (inactive).

On to `Cc1cc(C(=O)NC2=NCCS2)cs1`, for which the Kd is > 4 mM (inactive). In the case of `O=C(O)Cn1nnnc1-c1ccc(F)cc1` it was > 4 mM (inactive). For `CSc1nc2nc(C)cc(=O)n2[nH]1` the value was > 4 mM (inactive); for `Cc1cc(C(=O)N2CCN(c3ccccn3)CC2)c(C)o1`, > 4 mM (inactive). For `O=C(O)c1cc(O)c(O)c(O)c1` the value was > 4 mM (inactive). On to `O=C(Nc1cnccn1)c1ccncc1`, for which the Kd was > 4 mM (inactive). In the case of `COC(=O)c1cc(-c2c(C)nn(-c3ccccc3)c2C)n[nH]1` it was > 4 mM (inactive); in that of `CC(=O)Nc1ccncc1NC(C)=O`, > 4 mM (inactive); in that of `CCN(CC)c1nc2n(c(=O)n1)CCO2`, > 4 mM (inactive). For `COc1ccc2c(c1)OC[C@@H](Cc1ccc(OC)c(OC)c1)[C@@H]2O` the value was > 4 mM (inactive). For `COC(=O)[C@]1(C)CC[C@]2(C)CC[C@]3(C)C4=CC=C5C(=CC(=O)C(O)=C5C)[C@]4(C)CC[C@@]3(C)[C@@H]2C1` the value was > 4 mM (inactive).
